Reference: US6303612A, “Derivatives of hydroxyphenylsulfanylbenzoic and hydroxphenylsulfanylarylacetic acids” (Leciva, A.S., priority 1998, dated 2001)
In brackets after ≈: the same amount, converted by molar mass. Structures can show the parent of a compound that is named as a salt. Where two headings read alike, the source gives them in different places.

How the values were obtained:
[1] = tested on: peroxidation of lipids from the hepatic cells membranes; assay: Antioxidant effect in vitro; type: biochemical; conditions: at 100 μg
Description: Antioxidant Effect in vitro
The end-product, malonic dialdehyde, was transformed to coloured complex with thiobarbituric acid and determined spectrophotometrically. The antioxidant effect was expressed in % of peroxidation inhibition in the presence of the compound tested in comparison to a control sample.

LTB4 receptor = LTB4 receptor (Cavia porcellus, UniProt H0VYV8); assay: LTB4 receptor binding study; conditions: 3H-LTB4, guinea-pig spleen membranes; for IC50: read-out: Inh. of LTB4 rec. binding, IC50; for inhibition at 20 µM: read-out: Inh. of LTB4 rec. binding, %
LTB4 receptor, sequence (H0VYV8 1-348): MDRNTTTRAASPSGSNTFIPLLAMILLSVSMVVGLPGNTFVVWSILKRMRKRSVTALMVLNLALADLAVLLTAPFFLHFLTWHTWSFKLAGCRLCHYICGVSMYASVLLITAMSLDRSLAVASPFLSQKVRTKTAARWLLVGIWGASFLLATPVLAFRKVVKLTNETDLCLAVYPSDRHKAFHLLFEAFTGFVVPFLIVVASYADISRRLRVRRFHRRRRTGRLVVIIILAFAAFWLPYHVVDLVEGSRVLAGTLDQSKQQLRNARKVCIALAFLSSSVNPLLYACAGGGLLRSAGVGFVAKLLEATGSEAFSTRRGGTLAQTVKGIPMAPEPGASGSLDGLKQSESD
Procedure: LTB4 Receptor Binding Study
A slightly modified method of Cheng and coworkers (Cheng J. B. et al.: J. Pharm. Expl. Ther. 236, 126 (1986)) was used. The membrane fraction was prepared from male guinea-pig spleen; 2 mg of membranes were incubated with 0.3 nM ^3 H-LTB4 at 25° C. for 30 min in 100 μl of the incubated mixture. The nonspecific binding was determined in the presence of 0.1 μM LTB4. The membranes were filtered though Whatman GF/C paper and washed triply with buffer. The radioactivity was measured by liquid scintillation spectrometry, and the specific binding of ^3 H-LTB4 to the receptor was determined.

[2] = tested on: LTB4 production in rat polymorphonuclear cells; assay: Ex vivo inhibition of LTB4 production (LTB4 biosynthesis); type: cell-based; conditions: for IC50: Rattus norvegicus, read-out: Inh. of LTB4 biosynth., IC50; for Inh. of LTB4 biosynth., %: at 30 μg (%/μg)
Procedure: Ex vivo Inhibition of LTB4 Production The production of LTB4 was determined in rat polymorphonuclear cells from pleural exudate elicited by heat-activated rat serum (Palmer R. M. J., Salmon J. A.: Immunology 50, 65 (1983)). The cells were stimulated with the Ca ionophore A 23187 (Sigma) and incubated with various concentrations of the drugs tested. The sample containing only buffer was used for the determination of unaffected biosynthesis; the complete inhibition was measured in a sample with 100 μg of NDGA in 1 ml. LTB4 was determined in supernatant using a commercial RIA kit (Amersham).

Wistar-Han rats = assay: Inhibition of carrageenan edema; type: in vivo; conditions: dose 100 mg/kg; for inhibition in vivo at 100 mg/kg: Rattus norvegicus, read-out: CE: inhibition of carrageenan-induced edema, % of inh.
LTD4 receptor = target: T1, LTD4 receptor (Cavia porcellus, UniProt Q2NNR5); assay: LTD4 receptor binding study; conditions: 3H-LTD4, guinea-pig lung membranes; for IC50: read-out: Inh. of LTD4 rec. binding, IC50; for inhibition at 100 µM / inhibition at 20 µM: read-out: Inh. of LTD4 rec. binding, %
T1 construct: The membrane fraction was prepared from male guinea-pig lungs; from tissue; host or cells: male guinea-pig lung membranes
T1 sequence (Q2NNR5 1-340): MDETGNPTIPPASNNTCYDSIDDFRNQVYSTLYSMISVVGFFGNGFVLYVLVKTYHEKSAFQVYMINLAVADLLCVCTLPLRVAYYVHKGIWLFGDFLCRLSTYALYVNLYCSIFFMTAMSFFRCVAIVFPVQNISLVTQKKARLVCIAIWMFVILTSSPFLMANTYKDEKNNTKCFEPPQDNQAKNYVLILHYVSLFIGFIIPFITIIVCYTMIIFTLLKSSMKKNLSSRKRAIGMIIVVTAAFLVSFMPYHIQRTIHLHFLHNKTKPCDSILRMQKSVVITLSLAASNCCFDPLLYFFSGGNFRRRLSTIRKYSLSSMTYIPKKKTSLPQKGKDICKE
Procedure: LTD4 Receptor Binding Study
This study was performed according to the method of Burns and coworkers (Burns R. F. et al.: Life Sci. 33, 645 (1983)). The membrane fraction was prepared from male guinea-pig lungs, and 4 mg of this fraction were incubated with 0.4 nM ^3 H-LTD4 for 60 min at 25° C. in 100 μl of the incubated mixture. The nonspecific binding was determined in the presence of 0.1 μM LTD4. The filtration of the membranes, washing, and radioactivity measurement were as above.

male mice = assay: Inhibition of arachidonic acid-induced ear inflammation in mice; type: in vivo; conditions: Mus musculus, po, 1 h
Procedure: Inhibition of Arachidonic Acid-induced Ear Inflammation in Mice (Opas E. E. et al.: J. Invest. Dermatol. 84, 253 (1985) Ear inflammation was induced in male mice by 20 μl of arachidonic acid dissolved in acetone (concentration 100 mg/ml). The mice were sacrificed 1 h after application of arachidonic acid and the ears were cut off by standard means. The other, vehicle-treated ear of the same animal served as a control. The degree of ear hyperemia and the weight of ear lobes were evaluated. Test compounds were administered orally 1 h before the induction of inflammation.

rats = assay: Inhibition of carrageenan-induced pleuritis in rats; type: in vivo; conditions: for inhibition in vivo at 100 mg/kg: Rattus norvegicus, po, 4 h
Procedure: Inhibition of Carrageenan-induced Pleuritis in Rats
(Hidaka T. J.: Pharm. Pharmacol. 38, 242 (1986) 1 ml of 0.5% carrageenan solution in saline was administered intrapleurally to experimental animals under mild ether anesthesia. Test drugs were administered in single oral dose 1 h before carrageenan injection, 4 h following the carrageenan application the rats were killed and exudate was withdrawn from opened pleural cavity. The volume of exudate, its cellularity and total cell number were determined.

[3] = values with mark n: p > 0.05, read-out: Ear edema, D: edema of ear lobe, % of inh.
[4] = values with mark n: p > 0.05, read-out: Ear edema, E: hyperemia of ear lobe, % of inh.
[5] = dose 100 mg/kg, oral, values with mark n: p > 0.05, read-out: Experimental pleuritis, A: volume of exudate in pleural cavity, % of inh.
[6] = dose 100 mg/kg, oral, values with mark n: p > 0.05, read-out: Experimental pleuritis, B: number of cells, % of inh.
[7] = dose 100 mg/kg, oral, values with mark n: p > 0.05, read-out: Experimental pleuritis, C: cellularity in a volume unit, % of inh.
[8] = dose 100 mg/kg, oral, values with mark n: p > 0.05, 100 mg/kg

IC50 (LTB4 receptor) [µM] | inhibition at 20 µM (LTB4 receptor; at 20 μM) [%] | IC50 [2] [µg/mL] | IC50 (LTD4 receptor) [µM] | inhibition at 100 µM (LTD4 receptor) [%] | Structure (SMILES) | Antiox. effect, % of peroxidation inhibition [1] [%] | Inh. of LTB4 biosynth., % [2] [%] | inhibition in vivo at 100 mg/kg (Wistar-Han rats) [%] | inhibition in vivo at 200 mg/kg (male mice; [3]) [%] | inhibition in vivo at 200 mg/kg (male mice; [4]) [%] | inhibition in vivo at 100 mg/kg (rats; [5]) [%] | inhibition in vivo at 100 mg/kg (rats; [6]) [%] | inhibition in vivo at 100 mg/kg (rats; [7]) [%] | other results
5.2 | 98 | 0.8 (≈ 1.71 µM) | 26.1 | 88 | CCCc1c(OCCOc2cccc(Sc3ccc(C(=O)O)cc3)c2)ccc(C(C)=O)c1O [Compound 2, 4-(3-(2-(4-Acetyl-3-hydroxy-2-propylphenoxy)ethyloxy)phenylsulfanyl)benzoicAcid] | 41 | 100 | 30 | 18 | 2 | 2 | 43 | 46 | 
12 | 68 |  | 13.6 | 100 | CCCc1c(OCCCCOc2ccc(Sc3ccccc3C(=O)O)cc2)ccc(C(C)=O)c1O [Compound 7] | 16 | 100 | 41 | 16 | 5 | 14 | 35 | 26 | 
17 | 61 | 3.5 (≈ 7.5 µM) | 10.8 | 98 | CCCc1c(OCCOc2ccc(Sc3ccc(C(=O)O)cc3)cc2)ccc(C(C)=O)c1O [Compound 1, 4-(4-(2-(4-Acetyl-3-hydroxy-2-propylphenoxy)ethyloxy)phenylsulfanyl)benzoicAcid] | 54 | 100 | 31 | 13 | 8 | 8 | 17 | 9 | 
30 | 38 |  | 1 | 81 | O=C(O)Cc1ccccc1Sc1ccc(OCc2ccc3cc(Cl)ccc3n2)cc1 [Compound 32, 2-(4-(6-Chloroquinoline-2-ylmethoxy)phenylsulfanyl)phenylacetic Acid] | 14 | 62 |  |  |  |  |  |  | 
 | 16 | 9.5 (≈ 18.6 µM) | 33 | 86 | O=C(O)c1ccccc1Sc1ccc(OCCCCN2CCN(Cc3ccc(Cl)cc3)CC2)cc1 [Compound 14] |  | 100 |  |  |  |  |  |  | 
 | 25 | 0.02 (≈ 0.0414 µM) | 120 | 36 | O=C(O)c1ccccc1Sc1ccc(OCCN2CCN(Cc3ccc(Cl)cc3)CC2)cc1 [Compound 11, Hydrogenmaleate of 2-(4-(2-(1-(4-Chlorobenzyl)piperazin-4-yl)ethoxy)-phenylsulfanyl)benzoic Acid] | 10 | 97 | 33 | 22 | 0 |  |  |  | 
 |  | 12.6 (≈ 29.3 µM) |  | 22 | COC(=O)c1ccccc1Sc1cccc(OCCCN2CCN(CCO)CC2)c1 [Compound 15, Bis-hydrogenmaleate of Methyl 2-(3-(3-(1-(2-hydroxyethyl)piperazin-4-yl)-propoxy)phenyl-sulfanyl)benzoate] | 0 | 88 | 9 | 7 | 3 | 2 | 15 |  | 
20.5 | 43 | 0.004 (≈ 0.00996 µM) | 2.3 |  | O=C(O)Cc1ccc(Sc2ccc(OCc3ccc4ccccc4n3)cc2)cc1 [Compound 30, 4-(4-(Quinoline-2-ylmethoxy)phenylsulfanyl)phenylacetic Acid] | 14 | 94 | 41 |  |  | 27 | 30 | 2 | inhibition at 20 µM (LTD4 receptor): 80%
14.7 |  |  | 0.31 |  | O=C(O)c1ccc(Sc2ccc(OCc3ccc4ccccc4n3)cc2)cc1 [Compound 24, Tromethammonium salt of 4-(4-(Quinoline-2-ylmethoxy)phenylsulfanyl)benzoic Acid] | 13 | 99 |  |  |  |  |  |  | Inh. of LTB4 rec. binding, % (LTB4 receptor; at 20 μM): 42%; Inh. of LTB4 biosynth., IC50 [2]: 0.18 µg/mL; CE: inhibition of carrageenan-induced edema, % of inh. (Wistar-Han rats): 27%; inhibition at 20 µM (LTD4 receptor): 95%; Experimental pleuritis, A: volume of exudate in pleural cavity, % of inh. (rats; [8]): 23%; Experimental pleuritis, B: number of cells, % of inh. (rats; [8]): 32%; Experimental pleuritis, C: cellularity in a volume unit, % of inh. (rats; [8]): 6%
 | 0 | 1.12 (≈ 1.95 µM) | 0.03 | 94 | COc1cc(C(=O)NS(=O)(=O)c2ccccc2C)ccc1Cc1cn(C)c2ccc(NC(=O)OC3CCCC3)cc12 [Accolate, reference compound] |  | 98 |  |  |  |  |  |  | 

Structure (SMILES) | IC50 (LTB4 receptor) [µM] | inhibition at 20 µM (LTB4 receptor; at 20 μM) [%] | IC50 [2] [µg/mL] | IC50 (LTD4 receptor) [µM] | inhibition at 100 µM (LTD4 receptor) [%] | Antiox. effect, % of peroxidation inhibition [1] [%] | Inh. of LTB4 biosynth., % [2] [%] | inhibition in vivo at 100 mg/kg (Wistar-Han rats) [%] | inhibition in vivo at 200 mg/kg (male mice; [3]) [%] | inhibition in vivo at 200 mg/kg (male mice; [4]) [%] | inhibition in vivo at 100 mg/kg (rats; [5]) [%] | inhibition in vivo at 100 mg/kg (rats; [6]) [%] | inhibition in vivo at 100 mg/kg (rats; [7]) [%] | other results
NC(=O)N1C(=O)C(=C(O)c2cccs2)c2cc(Cl)ccc21 [Tenidap Na^+, reference compound] |  | 8 | 1.04 (≈ 3.24 µM) | 418 | 10 |  | 100 | 61 | 14 | 76 |  | 73 |  | inhibition in vivo at 100 mg/kg (rats; read-out: Experimental pleuritis, A: volume of exudate in pleural cavity, % of inh.): 72%; inhibition in vivo at 100 mg/kg (rats; read-out: Experimental pleuritis, C: cellularity in a volume unit, % of inh.): 6%
